Laboratory results from ChEMBL document CHEMBL3044874, “Synthesis and characterization of some heterocyclic schiff bases: potential anticonvulsant agents” (Med Chem Res, 2011).
The source made the active and inactive calls. The rule behind the calls is not given here.

Key:
[1] = system: Mus musculus; test: Anticonvulsant activity in Mus musculus Swiss albino (mouse) assessed as protection against strychnine-induced seizure at 300 mg/kg, ip; format: functional, organism-based; parameters: dose 300 mg/kg
[2] = system: Mus musculus; test: Anticonvulsant activity in ip dosed Mus musculus Swiss albino (mouse) assessed as protection against pentylenetetrazole-induced seizure; format: functional
[3] = system: Mus musculus; test: Anticonvulsant activity in ip dosed Mus musculus Swiss albino (mouse) assessed as protection against maximal electroshock-induced seizure; format: functional
[4] = system: Mus musculus; test: Anticonvulsant activity in ip dosed Mus musculus Swiss albino (mouse) assessed as protection against maximal electroshock-induced seizure at 4 hr; format: functional; details: read-out: MED
[5] = system: Mus musculus; test: Anticonvulsant activity in ip dosed Mus musculus Swiss albino (mouse) assessed as protection against maximal electroshock-induced seizure at 0.5 hr; format: functional; details: read-out: MED
[6] = system: Mus musculus; test: Neurotoxicity against ip dosed Mus musculus Swiss albino (mouse) at 0.5 hr by rota rod test; format: toxicity, organism-based; details: in vivo
[7] = system: Mus musculus; test: Neurotoxicity against ip dosed Mus musculus Swiss albino (mouse) at 4 hr by rota rod test; format: toxicity, organism-based; details: in vivo
[8] = system: Mus musculus; test: Anticonvulsant activity in ip dosed Mus musculus Swiss albino (mouse) assessed as protection against strychnine-induced seizure at 4 hr; format: functional; details: read-out: MED
[9] = system: Mus musculus; test: Anticonvulsant activity in ip dosed Mus musculus Swiss albino (mouse) assessed as protection against strychnine-induced seizure at 0.5 hr; format: functional; details: read-out: MED
[10] = system: Mus musculus; test: Anticonvulsant activity in Mus musculus Swiss albino (mouse) assessed as protection against pentylenetetrazole-induced seizure at 300 mg/kg, ip measured at 4 hr; format: functional, organism-based; parameters: dose 300 mg/kg
[11] = system: Mus musculus; test: Anticonvulsant activity in Mus musculus Swiss albino (mouse) assessed as protection against pentylenetetrazole-induced seizure at 300 mg/kg, ip measured at 0.5 hr; format: functional, organism-based; parameters: dose 300 mg/kg
[12] = system: Rattus norvegicus; test: Anticonvulsant activity in Rattus norvegicus Wistar (rat) assessed as protection against maximal electroshock-induced seizure at 30 mg/kg, po measured at 4 hr; format: functional, organism-based; parameters: dose 30 mg/kg
[13] = system: Rattus norvegicus; test: Anticonvulsant activity in Rattus norvegicus Wistar (rat) assessed as protection against maximal electroshock-induced seizure at 30 mg/kg, po measured at 2 hr; format: functional, organism-based; parameters: dose 30 mg/kg
[14] = system: Rattus norvegicus; test: Anticonvulsant activity in Rattus norvegicus Wistar (rat) assessed as protection against maximal electroshock-induced seizure at 30 mg/kg, po measured at 1 hr; format: functional, organism-based; parameters: dose 30 mg/kg
[15] = system: Rattus norvegicus; test: Anticonvulsant activity in Rattus norvegicus Wistar (rat) assessed as protection against maximal electroshock-induced seizure at 30 mg/kg, po measured at 0.5 hr; format: functional, organism-based; parameters: dose 30 mg/kg
[16] = system: Rattus norvegicus; test: Anticonvulsant activity in Rattus norvegicus Wistar (rat) assessed as protection against maximal electroshock-induced seizure at 30 mg/kg, po measured at 0.25 hr; format: functional, organism-based; parameters: dose 30 mg/kg
[17] = Protection index, ratio TD50 for neurotoxicity to ED50 for protection against maximal electroshock-induced seizure in Mus musculus Swiss albino (mouse); format: toxicity, organism-based; details: in vivo, read-out: Ratio TD50/ED50
[18] = Neurotoxicity against ip dosed Mus musculus Swiss albino (mouse) by rota rod test; format: toxicity, organism-based; details: in vivo
[19] = system: Mus musculus; test: Anticonvulsant activity in ip dosed Mus musculus Swiss albino (mouse) assessed as protection against strychnine-induced seizure; format: functional
[20] = system: Mus musculus; test: Anticonvulsant activity in Mus musculus Swiss albino (mouse) assessed as protection against pentylenetetrazole-induced seizure at 300 mg/kg, ip; format: functional, organism-based; parameters: dose 300 mg/kg
[21] = system: Mus musculus; test: Anticonvulsant activity in Mus musculus Swiss albino (mouse) assessed as protection against strychnine-induced seizure at 300 mg/kg, ip measured at 4 hr; format: functional, organism-based; parameters: dose 300 mg/kg
[22] = system: Mus musculus; test: Anticonvulsant activity in Mus musculus Swiss albino (mouse) assessed as protection against strychnine-induced seizure at 300 mg/kg, ip measured at 0.5 hr; format: functional, organism-based; parameters: dose 300 mg/kg
[23] = system: Mus musculus; test: Neurotoxicity against Mus musculus Swiss albino (mouse) at 300 mg/kg, ip measured at 4 hr by rota rod test; format: toxicity, organism-based; parameters: dose 300 mg/kg, route intraperitoneal; details: in vivo
[24] = system: Mus musculus; test: Anticonvulsant activity in ip dosed Mus musculus Swiss albino (mouse) assessed as protection against pentylenetetrazole-induced seizure at 0.5 hr; format: functional; details: read-out: MED
[25] = system: Mus musculus; test: Neurotoxicity against Mus musculus Swiss albino (mouse) at 300 mg/kg, ip measured at 0.5 hr by rota rod test; format: toxicity, organism-based; parameters: dose 300 mg/kg, route intraperitoneal; details: in vivo
[26] = system: Mus musculus; test: Anticonvulsant activity in ip dosed Mus musculus Swiss albino (mouse) assessed as protection against pentylenetetrazole-induced seizure at 4 hr; format: functional; details: read-out: MED

SMILES | Activity [1] | ED50 [3] [mg/kg] | minimal effective dose [4] [mg/kg] | minimal effective dose [5] [mg/kg] | MTC [6] [mg/kg] | MTC [7] [mg/kg] | minimal effective dose [8] [mg/kg] | minimal effective dose [9] [mg/kg] | Activity [10] | Activity [11] | Activity [12] | Activity [13] | Activity [14] | Activity [15] | Activity [16] | selectivity ratio [17] | TD50 [18] [mg/kg] | Activity [20] | Activity [21] | Activity [23] | other results
CCC1(c2ccccc2)C(=O)NC(=O)NC1=O [PHENOBARBITAL] | inactive | 21.8 | – | – | – | – | – | – | – | – | – | – | – | – | – | – | – | – | – | – | ED50 [2]: 13.2 mg/kg
C(=N\Cc1cccnc1)/c1ccccc1 | – | 53 | 30 | 100 | 100 | 100 | 100 | 100 | inactive | inactive | Active | Active | Active | inactive | inactive | 2.1 | 112 | inactive | – | – | ED50 [19]: 62.4 mg/kg
O=C1NC(=O)C(c2ccccc2)(c2ccccc2)N1 | inactive | – | – | – | – | – | – | – | – | – | Active | Active | Active | Active | inactive | – | – | inactive | – | – | –
C/C(=N\Cc1cccnc1)c1cccc(N)c1 | inactive | 8.64 | 30 | 30 | 100 | 100 | 100 | 30 | inactive | inactive | Active | Active | Active | Active | Active | 6.97 | 60.2 | inactive | – | – | –
COc1ccccc1/C=N/Cc1cccnc1 | inactive | 11.7 | 30 | 30 | 300 | 300 | – | – | inactive | inactive | Active | Active | Active | Active | Active | 15 | 176 | inactive | inactive | – | Activity [22]: inactive
Clc1ccccc1/C=N/Cc1cccnc1 | – | 11.7 | 30 | 30 | 300 | – | 100 | 100 | inactive | inactive | Active | Active | Active | Active | Active | 17.3 | 202 | inactive | – | Non-toxic | ED50 [19]: 93.6 mg/kg
Clc1ccc(/C=N/Cc2cccnc2)cc1 | inactive | 53 | 100 | 100 | 100 | – | 300 | 100 | inactive | inactive | Active | inactive | inactive | inactive | inactive | 2.35 | 125 | inactive | – | Non-toxic | –
OC(/C(=N\Cc1cccnc1)c1ccccc1)c1ccccc1 (stereo not drawn) | – | 20.8 | 30 | 30 | 30 | 30 | – | 100 | inactive | – | inactive | Active | Active | Active | Active | 0.57 | 11.9 | inactive | inactive | – | minimal effective dose [24]: 300 mg/kg; ED50 [19]: 106 mg/kg
C(=C\c1ccccc1)/C=N/Cc1cccnc1 | inactive | 36.3 | 300 | 30 | 100 | 100 | – | – | inactive | inactive | inactive | inactive | inactive | inactive | Active | 2.34 | 84.8 | inactive | inactive | – | Activity [22]: inactive
c1ccc(C(=NCc2cccnc2)c2ccccc2)cc1 | inactive | 9.13 | 30 | 30 | – | – | – | – | inactive | inactive | Active | inactive | Active | Active | Active | > 10 | > 500 | inactive | inactive | Non-toxic | Activity [25]: Non-toxic; Activity [22]: inactive
COc1ccc(/C=N/Cc2cccnc2)cc1O | inactive | 6.39 | 30 | 30 | 300 | 100 | 300 | 100 | inactive | inactive | Active | Active | Active | Active | Active | 31 | 198 | inactive | – | – | –
C/C(=N\Cc1cccnc1)c1ccccc1 | inactive | 55.7 | 30 | 100 | – | – | – | – | – | – | Active | Active | Active | inactive | inactive | > 10 | > 500 | – | inactive | Non-toxic | Activity [25]: Non-toxic; Activity [22]: inactive; minimal effective dose [26]: 30 mg/kg; minimal effective dose [24]: 30 mg/kg; ED50 [2]: 23.2 mg/kg
COc1cc(/C=N/Cc2cccnc2)ccc1O | – | 53 | 30 | 100 | 300 | – | 30 | 30 | – | – | Active | Active | Active | inactive | inactive | 3.31 | 176 | – | – | Non-toxic | minimal effective dose [26]: 30 mg/kg; minimal effective dose [24]: 30 mg/kg; ED50 [19]: 14.2 mg/kg; ED50 [2]: 6.44 mg/kg
